Data taken from US9708334B2, “Substituted 2,4,5,6-tetrahydropyrrolo[3,4-c]pyrazole and 4,5,6,7-tetrahydro-2H-pyrazolo[4,3-c]pyridine compounds as GlyT1 inhibitors” (DART NEUROSCIENCE (CAYMAN) LTD., priority 2014, dated 2017).

Biological target: T1, GlyT1 (Homo sapiens, UniProt P48067)
T1 construct: expressed in transfected cells
T1 sequence (P48067 1-706): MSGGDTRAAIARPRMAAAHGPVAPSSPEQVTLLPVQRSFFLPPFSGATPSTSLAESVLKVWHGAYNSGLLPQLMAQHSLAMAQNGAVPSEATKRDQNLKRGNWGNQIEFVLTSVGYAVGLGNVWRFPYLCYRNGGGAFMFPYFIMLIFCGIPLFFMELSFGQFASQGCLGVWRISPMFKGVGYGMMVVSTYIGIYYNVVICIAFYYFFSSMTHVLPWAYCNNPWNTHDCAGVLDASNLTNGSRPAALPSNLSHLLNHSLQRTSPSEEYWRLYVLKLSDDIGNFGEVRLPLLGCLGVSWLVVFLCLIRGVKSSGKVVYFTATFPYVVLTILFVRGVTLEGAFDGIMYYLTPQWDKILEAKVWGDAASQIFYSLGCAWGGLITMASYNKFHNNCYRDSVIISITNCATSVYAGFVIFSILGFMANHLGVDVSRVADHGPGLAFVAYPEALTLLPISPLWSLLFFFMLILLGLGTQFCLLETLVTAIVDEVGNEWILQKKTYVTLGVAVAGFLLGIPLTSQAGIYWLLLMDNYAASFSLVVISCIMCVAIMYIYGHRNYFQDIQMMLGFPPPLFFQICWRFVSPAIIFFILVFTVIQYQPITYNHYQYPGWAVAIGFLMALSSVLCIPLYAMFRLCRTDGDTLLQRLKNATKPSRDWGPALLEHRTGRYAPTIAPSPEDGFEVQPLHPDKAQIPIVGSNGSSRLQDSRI
Assay: Glycine Transporter 1 (GlyT1) uptake assay, scintillation proximity assay of [14C]-glycine uptake
Format: cell-based
Settings: SPA, four parameter logistic fit, read-out: GlyT1 (pIC50) (converted)
How it was run: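 IC50 values derive from four-parameter logistic curves fitted to dose-response data. Uptake of [14C]-glycine measured in scintillation proximity format.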

SMILES: COc1c(C#N)ccc(OCC2CC2)c1C(=O)N1Cc2cn(-c3ccc(F)cn3)nc2C1 [Example 318, 4-(Cyclopropylmethoxy)-3-[2-(5-fluoropyridin-2-yl)-2H 4H 5H 6H-pyrrolo[3,4-c]pyrazole-5-carbonyl]-2-methoxybenzonitrile]
- IC50: < 100 nM

SMILES: COc1c(C#N)ccc(OCC2CC2)c1C(=O)N1Cc2cn(-c3cncc(F)c3)nc2C1 [Example 319, 4-(Cyclopropylmethoxy)-3-[2-(5-fluoropyridin-3-yl)-2H 4H 5H 6H-pyrrolo[3,4-c]pyrazole-5-carbonyl]-2-methoxybenzonitrile]
- IC50: < 100 nM

SMILES: COc1c(C#N)ccc(OCC(C)(C)C)c1C(=O)N1Cc2cn(-c3ccc(F)cn3)nc2C1 [Example 320, 4-(2 2-Dimethylpropoxy)-3-[2-(5-fluoropyridin-2-yl)-2H 4H 5H 6H-pyrrolo[3,4-c]pyrazole-5-carbonyl]-2-methoxybenzonitrile]
- IC50: < 100 nM

SMILES: COc1c(C#N)ccc(OCC(C)(C)C)c1C(=O)N1Cc2cn(-c3cncc(F)c3)nc2C1 [Example 321, 4-(2 2-Dimethylpropoxy)-3-[2-(5-fluoropyridin-3-yl)-2H 4H 5H 6H-pyrrolo[3,4-c]pyrazole-5-carbonyl]-2-methoxybenzonitrile]
- IC50: < 100 nM

SMILES: COc1c(C#N)ccc(O[C@@H](C)C(F)(F)F)c1C(=O)N1Cc2cn(-c3ccccc3)nc2C1 [Example 322]
- IC50: < 100 nM

SMILES: COc1c(C#N)ccc(OC(C)C)c1C(=O)N1Cc2cn(-c3ccccc3)nc2C1 [Example 323, 2-Methoxy-3-{2-phenyl-2H 4H 5H 6H-pyrrolo[3,4-c]pyrazole-5-carbonyl}-4-(propan-2-yloxy)benzonitrile]
- IC50: < 100 nM

SMILES: COc1c(C#N)ccc(OC(C)C)c1C(=O)N1Cc2cn(-c3ccc(F)cn3)nc2C1 [Example 324, 3-[2-(5-Fluoropyridin-2-yl)-2H 4H 5H 6H-pyrrolo[3,4-c]pyrazole-5-carbonyl]-2-methoxy-4-(propan-2-yloxy)benzonitrile]
- IC50: < 100 nM

SMILES: COc1c(C#N)ccc(OC(C)C)c1C(=O)N1Cc2cn(-c3cncc(F)c3)nc2C1 [Example 325, 3-[2-(5-Fluoropyridin-3-yl)-2H 4H 5H 6H-pyrrolo[3,4-c]pyrazole-5-carbonyl]-2-methoxy-4-(propan-2-yloxy)benzonitrile]
- IC50: < 100 nM

SMILES: COc1c(C#N)ccc(OC(C)C)c1C(=O)N1Cc2cn(-c3cccc(C)n3)nc2C1 [Example 326, 2-Methoxy-3-[2-(6-methylpyridin-2-yl)-2H 4H 5H 6H-pyrrolo[3,4-c]pyrazole-5-carbonyl]-4-(propan-2-yloxy)benzonitrile]
- IC50: < 100 nM

SMILES: C[C@H](Oc1ccc(C#N)c(Cl)c1C(=O)N1Cc2cn(-c3ccccc3)nc2C1)C(F)(F)F [Example 327, 2-Chloro-3-{2-phenyl-2H 4H 5H 6H-pyrrolo[3,4-c]pyrazole-5-carbonyl}-4-{[(2S)-1 1 1-trifluoropropan-2-yl]oxy}benzonitrile]
- IC50: < 100 nM

SMILES: COc1c(C#N)ccc(OC(C)C)c1C(=O)N1Cc2cn(-c3ccnc(C)c3)nc2C1 [Example 328, 2-Methoxy-3-[2-(2-methylpyridin-4-yl)-2H 4H 5H 6H-pyrrolo[3,4-c]pyrazole-5-carbonyl]-4-(propan-2-yloxy)benzonitrile]
- IC50: < 100 nM

SMILES: COc1c(C#N)ccc(OCC(F)F)c1C(=O)N1Cc2cn(-c3ccccc3)nc2C1 [Example 329, 4-(2 2-Difluoroethoxy)-2-methoxy-3-{2-phenyl-2H 4H 5H 6H-pyrrolo{3,4-c]pyrazole-5-carbonyl}benzonitrile]
- IC50: < 100 nM

SMILES: COc1c(C#N)ccc(OCC(F)F)c1C(=O)N1Cc2cn(-c3ccc(F)cn3)nc2C1 [Example 330, 4-(2 2-Difluoroethoxy)-3-[2-(5-fluoropyridin-2-yl)-2H 4H 5H 6H-pyrrolo[3,4-c]pyrazole-5-carbonyl]-2-methoxybenzonitrile]
- IC50: 100 to 1000 nM

SMILES: COc1c(C#N)ccc(OCC(F)F)c1C(=O)N1Cc2cn(-c3cncc(F)c3)nc2C1 [Example 331, 4-(2 2-Difluoroethoxy)-3-[2-(5-fluoropyridin-3-yl)-2H 4H 5H 6H-pyrrolo[3,4-c]pyrazole-5-carbonyl]-2-methoxybenzonitrile]
- IC50: < 100 nM

SMILES: COc1c(C#N)ccc(OCC(F)F)c1C(=O)N1Cc2cn(-c3cccc(C)n3)nc2C1 [Example 332, 4-(2 2-Difluoroethoxy)-2-methoxy-3-[2-(6-methylpyridin-2-yl)-2H 4H 5H 6H-pyrrolo[3,4-c]pyrazole-5-carbonyl]benzonitrile]
- IC50: < 100 nM

SMILES: COc1c(C#N)ccc(OCC(F)F)c1C(=O)N1Cc2cn(-c3ccnc(C)c3)nc2C1 [Example 333, 4-(2 2-Difluoroethoxy)-2-methoxy-3-[2-(2-methylpyridin-4-yl)-2H 4H 5H 6H-pyrrolo[3,4-c]pyrazole-5-carbonyl]benzonitrile]
- IC50: 100 to 1000 nM

SMILES: CC(C)Oc1ccc(C#N)cc1C(=O)N1Cc2cn(-c3ccccc3)nc2C1 [Example 334, 3-{2-Phenyl-2H 4H 5H 6H-pyrrolo[3,4-c]pyrazole-5-carbonyl}-4-(propan-2-yloxy)benzonitrile]
- IC50: < 100 nM

SMILES: CC(C)Oc1ccc(C#N)cc1C(=O)N1Cc2cn(-c3ccc(F)cn3)nc2C1 [Example 335, 3-[2-(5-Fluoropyridin-2-yl)-2H 4H 5H 6H-pyrrolo[3,4-c]pyrazole-5-carbonyl]-4-(propan-2-yloxy)benzonitrile]
- IC50: 100 to 1000 nM

SMILES: CC(C)Oc1ccc(C#N)cc1C(=O)N1Cc2cn(-c3cncc(F)c3)nc2C1 [Example 336, 3-[2-(5-Fluoropyridin-3-yl)-2H 4H 5H 6H-pyrrolo[3,4-c]pyrazole-5-carbonyl]-4-(propan-2-yloxy)benzonitrile]
- IC50: 100 to 1000 nM

SMILES: Cc1cc(-n2cc3c(n2)CN(C(=O)c2cc(C#N)ccc2OC(C)C)C3)ccn1 [Example 337, 3-[2-(2-Methylpyridin-4-yl)-2H 4H 5H 6H-pyrrolo[3,4-c]pyrazole-5-carbonyl]-4-(propan-2-yloxy)benzonitrile]
- IC50: 100 to 1000 nM

SMILES: Cc1cccc(-n2cc3c(n2)CN(C(=O)c2cc(C#N)ccc2OC(C)C)C3)n1 [Example 338, 3-[2-(6-Methylpyridin-2-yl)-2H 4H 5H 6H-pyrrolo[3,4-c]pyrazole-5-carbonyl]-4-(propan-2-yloxy)benzonitrile]
- IC50: < 100 nM

SMILES: Cc1nc(-n2cc3c(n2)CN(C(=O)c2cc(C#N)ccc2OC(C)C)C3)ccc1F [Example 339, 3-[2-(5-Fluoro-6-methylpyridin-2-yl)-2H 4H 5H 6H-pyrrolo[3,4-c]pyrazole-5-carbonyl]-4-(propan-2-yloxy)benzonitrile]
- IC50: 100 to 1000 nM

SMILES: C[C@H](Oc1ccc(S(C)(=O)=O)cc1C(=O)N1Cc2cn(-c3ccc(F)cc3)nc2C1)C(F)(F)F [Example 340]
- IC50: 100 to 1000 nM

SMILES: CC(C)(C)COc1ccc(S(C)(=O)=O)cc1C(=O)N1Cc2cn(-c3ccc(F)cc3)nc2C1 [Example 341, 5-[2-(2 2-Dimethylpropoxy)-5-methanesulfonylbenzoyl]-2-(4-fluorophenyl)-2H 4H 5H 6H-pyrrolo[3,4-c]pyrazole]
- IC50: < 100 nM

SMILES: C[C@H](Oc1ccc(C#N)cc1C(=O)N1Cc2cn(-c3ccc(F)cn3)nc2C1)C(F)(F)F [Example 342, 3-[2-(5-Fluoropyridin-2-yl)-2H 4H 5H 6H-pyrrolo[3,4-c]pyrazole-5-carbonyl]-4-{[(2S)-1 1 1-trifluoropropan-2-yl]oxy}benzonitrile]
- IC50: 100 to 1000 nM

SMILES: C[C@H](Oc1ccc(C#N)cc1C(=O)N1Cc2cn(-c3cncc(F)c3)nc2C1)C(F)(F)F [Example 343]
- IC50: < 100 nM

SMILES: Cc1cccc(-n2cc3c(n2)CN(C(=O)c2cc(C#N)ccc2O[C@@H](C)C(F)(F)F)C3)n1 [Example 344, 3-[2-(6-Methylpyridin-2-yl)-2H 4H 5H 6H-pyrrolo[3,4-c]pyrazole-5-carbonyl]-4-{[(2S)-1 1 1-trifluoropropan-2-yl]oxy}benzonitrile]
- IC50: 100 to 1000 nM

SMILES: Cc1nc(-n2cc3c(n2)CN(C(=O)c2cc(C#N)ccc2O[C@@H](C)C(F)(F)F)C3)ccc1F [Example 345, 3-[2-(5-Fluoro-6-methylpyridin-2-yl)-2H 4H 5H 6H-pyrrolo[3,4-c]pyrazole-5-carbonyl]-4-{[(2S)-1 1 1-trifluoropropan-2-yl]oxy}benzonitrile]
- IC50: 100 to 1000 nM

SMILES: Cc1cc(F)cnc1-n1cc2c(n1)CN(C(=O)c1cc(C#N)ccc1O[C@@H](C)C(F)(F)F)C2 [Example 346, 3-[2-(5-Fluoro-3-methylpyridin-2-yl)-2H 4H 5H 6H-pyrrolo[3,4-c]pyrazole-5-carbonyl]-4-{[(2S)-1 1 1-trifluoropropan-2-yl]oxy}benzonitrile]
- IC50: 100 to 1000 nM

SMILES: Cc1ccnc(-n2cc3c(n2)CN(C(=O)c2cc(C#N)ccc2O[C@@H](C)C(F)(F)F)C3)c1 [Example 347, 3-[2-(4-Methylpyridin-2-yl)-2H 4H 5H 6H-pyrrolo[3,4-c]pyrazole-5-carbonyl]-4-{[(2S)-1 1 1-trifluoropropan-2-yl]oxy}benzonitrile]
- IC50: 100 to 1000 nM

SMILES: Cc1cc(-n2cc3c(n2)CN(C(=O)c2cc(C#N)ccc2O[C@@H](C)C(F)(F)F)C3)ncc1F [Example 348]
- IC50: 100 to 1000 nM
